In patent US20260249027A1, “METERED DOSE INHALERS AND HIGH-DOSE SUSPENSIONS” (Kindeva Drug Delivery L.P., priority 2023, published 2026):

Tests used:
Type in all cases: physicochemical
[1] = Additional through life dosing content uniformity of nintedanib suspension in HFO-1234ze(E), coated 63-microliter valve; conditions: nominal 1 mg/actuation (15.9 mg/mL), HFO-1234ze(E) without ethanol
Method: (§1) In the following examples, dose consistency was determined by in vitro measurement of single actuation dose content at start, middle and end of pMDI unit life in line with U.S. Pharmacopeia (USP)<601>, using a flow rate of 28.3 L/min and apparatus A. Aerodynamic particle size distribution of the pMDI suspension aerosols was measured at start of unit life in line with U.S. Pharmacopeia (USP)<601> using a Next Generation impactor without pre-separator (apparatus 6) and a flow rate of 30 L/min.
(§2) A suspension of nintedanib was prepared in HFO-1234ze(E). The concentration of nintedanib (15.9 mg/mL) was selected to provide a nominal actuation dose of 1 mg/actuation from a 63-microliter valve. The bottle emptier, tank, spring, and ferrule components of the valves were coated with a fluoropolymer coating according to the general process described in Example 2 of U.S. Patent Application Publication 2017/0152396 A1 (Jinks et al., hereby incorporated by reference). The formulation was mixed with a high shear mixer and cold filled into 16 mL FEP-coated canisters.
(§3) Average fine particle mass (<5 μm) was 434 μg/actuation.

[2] = Through life dose consistency of nintedanib (free base) pMDI suspensions (USP <601>, apparatus A)
Method: as §1
(§4) Suspensions of micronized nintedanib (free base) in HFA-152a or HFO-1234ze(E) were prepared. A first set of suspensions included no ethanol. A second set of suspensions included 2% ethanol by weight. Each suspension included an amount of nintedanib (free base) to provide a nominal delivered dose (ex-valve) of 0.5 mg/actuation (7.94 mg/mL) or 1.0 mg/actuation (15.87 mg/mL). Two further suspensions including no ethanol were prepared which included an amount of nintedanib (free base) to provide a nominal delivered dose (ex-valve) of 2.0 mg/actuation (20.0 mg/mL).
(§5) In total, ten suspension pMDI formulations were prepared in triplicate with sufficient fill weight to provide 60 actuations. The pMDI formulations containing 0.5 mg/actuation (7.94 mg/mL) and 1.0 mg/actuation (15.87 mg/mL) of nintedanib (free base) were filled into Kindeva FEP coated canisters, crimped with a Kindeva 63-μL valve. The pMDI formulations containing 2.0 mg/actuation (20.0 mg/mL) of nintedanib (free base) were filled into Kindeva FEP coated canisters, crimped with a Kindeva 100-μL valve. Each pMDI unit was sonicated for at least 10 minutes to disperse the suspended drug and tested with a Kindeva actuator having an exit orifice diameter (EOD) of 0.4 mm.
The through-life (TL) dose consistency of each pMDI unit was determined by measuring the mean ex-actuator delivered dose in micrograms of nintedanib (free base) (N=3) at the start of life (SoL), middle of life (MOL) and end of life (EoL) of the unit.

[3] = Aerodynamic particle size measurement of nintedanib (free base) pMDI suspensions (Next Generation impactor)
Source text: In general, aerosols with mass median aerodynamic diameters (MMAD) of at least 1 μm but less than 5 μm in size are suitable for effective deep lung deposition for therapeutic effect. Herein, fine particle fraction (FPF) is defined as the percentage of the ex-actuator delivered API having a MMAD of less than 5 μm when tested in vitro. Herein, “ex-actuator” delivered dose is used to describe the amount of API delivered past the actuator of a pMDI. Therefore, an aerosol with a high FPF is typically suitable for deep lung deposition.
as §1, §4
as §5, with “mm. The mass median aerodynamic diameter (MMAD) and fine particle fraction (FPF) of each pMDI unit were measured by Next Generation cascade impaction (N=3) for each pMDI suspension.” for “mm.”

[4] = Fine particle mass of nintedanib suspension in HFO-1234ze(E), coated 63-microliter valve; conditions: nominal 1 mg/actuation (15.9 mg/mL), HFO-1234ze(E) without ethanol
Method: as §1, §2, §3

[5] = nominal ex-valve 0.5 mg/act, HFA152a/2% EtOH (w/w), 63-μL valve
[6] = nominal ex-valve 0.5 mg/act, HFA152a, 63-μL valve
[7] = nominal ex-valve 0.5 mg/act, HFO1234ze(E)/2% EtOH (w/w), 63-μL valve
[8] = nominal ex-valve 0.5 mg/act, HFO1234ze(E), 63-μL valve
[9] = nominal ex-valve 1.0 mg/act, HFA152a/2% EtOH (w/w), 63-μL valve
[10] = nominal ex-valve 1.0 mg/act, HFA152a, 63-μL valve
[11] = nominal ex-valve 1.0 mg/act, HFO1234ze(E)/2% EtOH (w/w), 63-μL valve
[12] = nominal ex-valve 1.0 mg/act, HFO1234ze(E), 63-μL valve
[13] = nominal ex-valve 2.0 mg/act, HFA152a, 100-μL valve
[14] = nominal ex-valve 2.0 mg/act, HFO1234ze(E), 100-μL valve
[15] = nominal ex-valve 0.5 mg/act, HFA-152a/2% EtOH (w/w), 63-μL valve
[16] = nominal ex-valve 0.5 mg/act, HFA-152a, 63-μL valve
[17] = nominal ex-valve 0.5 mg/act, HFO-1234ze(E)/2% EtOH (w/w), 63-μL valve
[18] = nominal ex-valve 0.5 mg/act, HFO-1234ze(E), 63-μL valve
[19] = nominal ex-valve 1.0 mg/act, HFA-152a/2% EtOH (w/w), 63-μL valve
[20] = nominal ex-valve 1.0 mg/act, HFA-152a, 63-μL valve
[21] = nominal ex-valve 1.0 mg/act, HFO-1234ze(E)/2% EtOH (w/w), 63-μL valve
[22] = nominal ex-valve 1.0 mg/act, HFO-1234ze(E), 63-μL valve
[23] = nominal ex-valve 2.0 mg/act, HFA-152a, 100-μL valve
[24] = nominal ex-valve 2.0 mg/act, HFO-1234ze(E), 100-μL valve

- average dose (through life dosing content uniformity) [1]: 950 μg/actuation
- effect of addition of ethanol on through unit life ex-actuator delivered dose consistency ([2]; 2% ethanol by weight, HFA-152a or HFO-1234ze(E)): did not always substantially improve
- through unit life ex-actuator delivered dose consistency ([2]; HFA-152a or HFO-1234ze(E) with and without 2% ethanol by weight): relatively consistent
- EoL mean delivered dose [2, 5]: 383.1 μg/act
- MoL mean delivered dose [2, 5]: 364.6 μg/act
- SoL mean delivered dose [2, 5]: 452.4 μg/act
- TL mean delivered dose [2, 5]: 400.1 μg/act
- EoL mean delivered dose [2, 6]: 335.9 μg/act
- MoL mean delivered dose [2, 6]: 360.0 μg/act
- SoL mean delivered dose [2, 6]: 468.9 μg/act
- TL mean delivered dose [2, 6]: 388.3 μg/act
- EoL mean delivered dose [2, 7]: 378.0 μg/act
- MoL mean delivered dose [2, 7]: 385.9 μg/act
- SoL mean delivered dose [2, 7]: 431.1 μg/act
- TL mean delivered dose [2, 7]: 398.3 μg/act
- EoL mean delivered dose [2, 8]: 380.5 μg/act
- MoL mean delivered dose [2, 8]: 372.8 μg/act
- SoL mean delivered dose [2, 8]: 401.8 μg/act
- TL mean delivered dose [2, 8]: 385.0 μg/act
- EoL mean delivered dose [2, 9]: 818.8 μg/act
- MoL mean delivered dose [2, 9]: 773.1 μg/act
- SoL mean delivered dose [2, 9]: 940.6 μg/act
- TL mean delivered dose [2, 9]: 844.2 μg/act
- EoL mean delivered dose [2, 10]: 890.2 μg/act
- MoL mean delivered dose [2, 10]: 759.1 μg/act
- SoL mean delivered dose [2, 10]: 1020.0 μg/act
- TL mean delivered dose [2, 10]: 889.8 μg/act
- EoL mean delivered dose [2, 11]: 818.5 μg/act
- MoL mean delivered dose [2, 11]: 824.9 μg/act
- SoL mean delivered dose [2, 11]: 926.7 μg/act
- TL mean delivered dose [2, 11]: 856.7 μg/act
- EoL mean delivered dose [2, 12]: 947.3 μg/act
- MoL mean delivered dose [2, 12]: 962.2 μg/act
- SoL mean delivered dose [2, 12]: 947.8 μg/act
- TL mean delivered dose [2, 12]: 952.4 μg/act
- EoL mean delivered dose [2, 13]: 1954.6 μg/act
- MoL mean delivered dose [2, 13]: 1876.0 μg/act
- SoL mean delivered dose [2, 13]: 2205.7 μg/act
- TL mean delivered dose [2, 13]: 2012.2 μg/act
- EoL mean delivered dose [2, 14]: 2282.4 μg/act
- MoL mean delivered dose [2, 14]: 1884.0 μg/act
- SoL mean delivered dose [2, 14]: 1561.8 μg/act
- TL mean delivered dose [2, 14]: 1909.4 μg/act
- MMAD values of aerosols, suitability ([3]; HFA-152a or HFO-1234ze(E), with and without ethanol, in-vitro): in an appropriate respirable range
- Mean FPF [3, 15]: 26.9%
- Mean MMAD [3, 15]: 3.65 μm
- Mean FPF [3, 16]: 33.7%
- Mean MMAD [3, 16]: 3.74 μm
- Mean FPF [3, 17]: 36.8%
- Mean MMAD [3, 17]: 3.50 μm
- Mean FPF [3, 18]: 60.0%
- Mean MMAD [3, 18]: 2.88 μm
- Mean FPF [3, 19]: 18.0%
- Mean MMAD [3, 19]: 4.74 μm
- Mean FPF [3, 20]: 23.8%
- Mean MMAD [3, 20]: 5.01 μm
- Mean FPF [3, 21]: 29.3%
- Mean MMAD [3, 21]: 4.20 μm
- Mean FPF [3, 22]: 44.4%
- Mean MMAD [3, 22]: 3.66 μm
- Mean FPF [3, 23]: 16.7%
- Mean MMAD [3, 23]: 7.47 μm
- Mean FPF [3, 24]: 34.8%
- Mean MMAD [3, 24]: 4.08 μm
- Average fine particle mass (<5 μm) [4]: 434 μg/actuation
SMILES: COC(=O)c1ccc2c(c1)NC(=O)/C2=C(\Nc1ccc(N(C)C(=O)CN2CCN(C)CC2)cc1)c1ccccc1 [nintedanib (free base), nintedanib]
- Through life dosing content uniformity, trend [1]: no trending between start, middle, and end of life
- FPF and MMAD without ethanol compared with corresponding suspensions with 2% ethanol by weight ([3]; HFA-152a or HFO-1234ze(E), all nominal doses): consistently produced greater FPFs and smaller MMADs
- FPF and MMAD in HFO-1234ze(E) compared with corresponding suspensions in HFA-152a ([3]; with or without ethanol): consistently produced greater FPFs and smaller MMADs
